target: T1, Human PTP1B (1-321) (Homo sapiens, UniProt P18031); assay: In Vitro Inhibition of PTP1B (PTPase assay); type: biochemical; conditions: PTP1B inhibitory activity, procedures of Example 150
T1 construct: Human PTP1B (1-321) was cloned from a human cDNA library; made in house; host or cells: E. coli
T1 sequence (P18031 1-321): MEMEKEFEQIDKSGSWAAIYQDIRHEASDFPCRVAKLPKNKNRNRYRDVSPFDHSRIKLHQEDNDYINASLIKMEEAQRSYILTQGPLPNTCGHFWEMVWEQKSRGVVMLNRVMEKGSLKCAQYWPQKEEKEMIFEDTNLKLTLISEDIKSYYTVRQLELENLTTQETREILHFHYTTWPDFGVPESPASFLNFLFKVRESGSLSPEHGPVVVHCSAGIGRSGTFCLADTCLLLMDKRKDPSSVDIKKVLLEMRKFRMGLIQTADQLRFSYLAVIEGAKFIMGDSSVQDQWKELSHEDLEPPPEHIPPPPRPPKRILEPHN
Protocol: Human PTP1B (1-321) was cloned from a human cDNA library using conventional molecular biology techniques. The cDNA sequence was identical to the published human PTP1B sequence (Accession number M33689). The protein was expressed and purified from E. coli as described by Barford D. et. al J. Mol Biol (1994) 239, 726-730.
The measurement of PTPase activity was carried out using one of two methods:
The first method for the measurement of PTP1B inhibitory activity a tyrosine phosphorylated peptide based on the amino acid sequence of insulin receptor tyrosine autophosphorylation site 1146 (TRDI(pY)E) was used as substrate. The reaction conditions were as follows:
PTP1B (0.5-2 nM) was incubated with compound for 15 min in buffer containing 37.5 mM Bis-Tris buffer pH 6.2, 140 mMNaCl, 0.05% BSA and 2 mM DTT. The reaction was started by the addition of 50 μM substrate. After 20 min at room temperature (22-25° C.), the reaction was stopped with KOH and the amount of free phosphate measured using Malachite Green as previously described (Harder et al. 1994 Biochem J. 298; 395).
The second method was used for the measurement of general PTPase inhibitory activity across a panel of PTPases the substrate (6,8-difluoro-4-methylumbelliferyl phosphate (DiFMUP; from Molecular Probes) was used at the Km for each enzyme. The buffer conditions were identical as in the Malachite Green assay. The reaction was stopped with KOH. In this case the dephosphoryated product becomes fluorescent and the fluorescense read (Excitiation: […]/Emmission: 460 nM).

Compound | IC50 [nM]
CNc1nc(N)nc2cc(-c3c(Cl)cccc3Cl)ccc12 [Example 24, 7-(2,6-Dichloro-phenyl)-N4-methyl-quinazoline-2,4-diamine] | 1110
Cc1ccccc1-c1ccc2c(NCCO)nc(N)nc2c1 [Example 43, 2-(2-Amino-7-o-tolyl-quinazolin-4-ylamino)-ethanol] | 6020
CNc1nc(N)nc2cc(-c3ccccc3SC)ccc12 [Example 58, N4-Methyl-7-(2-methylsulfanyl-phenyl)-quinazoline-2,4-diamine] | 1010
CNc1nc(N)nc2cc(-c3c(C)cccc3Cl)ccc12 [Example 89, 7-(2-Chloro-6-methyl-phenyl)-N4-methyl-quinazoline-2,4-diamine] | 1460
Nc1nc(NCCO)c2ccc(-c3ccccc3F)cc2n1 [Example 41, 2-[2-Amino-7-(2-fluoro-phenyl)-quinazolin-4-ylamino]-ethanol] | 19000
CNc1nc(N)nc2cc(-c3ccc(F)cc3C)ccc12 [Example 69, 7-(4-Fluoro-2-methyl-phenyl)-N4-methyl-quinazoline-2,4-diamine] | 4040
CNc1nc(N)nc2cc(-c3ccccc3[S+](C)[O-])ccc12 (stereo not drawn) [Example 71, 7-(2-Methanesulfinyl-phenyl)-N4-methyl-quinazoline-2,4-diamine] | 2780
Nc1nc(NCCO)c2ccc(-c3ccccc3C(F)(F)F)cc2n1 [Example 57, 2-[2-Amino-7-(2-trifluoromethyl-phenyl)-quinazolin-4-ylamino]-ethanol] | 3340
CNc1nc(N)nc2cc(-c3ccccc3S(C)(=O)=O)ccc12 [Example 72, 7-(2-Methanesulfonyl-phenyl)-N4-methyl-quinazoline-2,4-diamine] | 1440
CCNc1nc(N)nc2cc(-c3c(C)cccc3C)ccc12 [Example 14, 7-(2,6-Dimethyl-phenyl)-N4-ethyl-quinazoline-2,4-diamine] | 2480
CNc1nc(N)nc2cc(-c3c(OC)cccc3OC)ccc12 [Example 21, 7-(2,6-Dimethoxy-phenyl)-N4-methyl-quinazoline-2,4-diamine] | 3500
CNc1nc(N)nc2cc(-c3ccccc3S(=O)(=O)NC)ccc12 [Example 126, N-methyl-2-(2-amino-4-methylamino-quinazolin-7-yl)-benzenesulfonamide] | 1940

More lines, in order of falling IC50, values ahead:

IC50 [nM] | Compound
14000 | Cc1cccc(C)c1-c1ccc2c(N(C)C)nc(N)nc2c1 [Example 9, 7-(2,6-Dimethyl-phenyl)-N4,N4-dimethyl-quinazoline-2,4-diamine]
4180 | CSc1ccccc1-c1ccc2c(NCCO)nc(N)nc2c1 [Example 75, 2-[2-Amino-7-(2-methylsulfanyl-phenyl)-quinazolin-4-ylamino]-ethanol]
3170 | Cc1cccc(C)c1-c1ccc2c(NCCO)nc(N)nc2c1 [Example 36, 2-[2-Amino-7-(2,6-dimethyl-phenyl)-quinazolin-4-ylamino]-ethanol]
3150 | CNc1nc(N)nc2cc(-c3ccccc3C)ccc12 [Example 6, N4-Methyl-7-o-tolyl-quinazoline-2,4-diamine]
1890 | CCNS(=O)(=O)c1ccccc1-c1ccc2c(NC)nc(N)nc2c1 [Example 125]
1600 | CNc1nc(N)nc2cc(-c3ccccc3S(=O)(=O)N(C)C)ccc12 [Example 120, 2-(2-aAmino-4-methylamino-quinazolin-7-yl)-N,N-dimethyl-benzenesulfonamide]
1390 | CCS(=O)(=O)c1ccccc1-c1ccc2c(NC)nc(N)nc2c1 [Example 82, 7-(2-Ethanesulfonyl-phenyl)-N4-methyl-quinazoline-2,4-diamine]
790 | CNc1nc(N)nc2cc(-c3c(C)cccc3C)ccc12 [Example 8, 7-(2,6-Dimethyl-phenyl)-N4-methyl-quinazoline-2,4-diamine]

tested on: not given; assay: not given; conditions: not given

melting point [°C] | Compound
316 to 317 | CNc1nc(N)nc2cc(-c3ccccc3S(=O)(=O)NC)ccc12 [Example 126, N-methyl-2-(2-amino-4-methylamino-quinazolin-7-yl)-benzenesulfonamide]
